{"source": "paper PMC3637257", "about": "“A Novel Anti-Tumor Inhibitor Identified by Virtual Screen with PLK1 Structure and Zebrafish Assay” (PLoS ONE, 2013)"}
{"tested_on": "PC-3", "assay": "cells", "set-up": "MTS cell viability / proliferation assay of PC-3 prostate cancer cells", "conditions": "Homo sapiens, PC-3, 72 h; read-out: IC50 inhibiting PC-3", "description": "Fifteen human cancer cell lines were tested in our studies. Initial screens used human lung cancer cell A549, human epithelial cervical cancer Hela cells, human prostate cancer PC-3 cells, human epidermoid cancer KB-31 cells, human breast cancer MDA-MB-231 cells, and human pancreatic cancer HPAF. These cell lines were obtained commercially from ATCC. The first six cell cultures were maintained in 75 cm^2 cell culture flasks in which the cells were passaged at 70–80% confluence every 2–3 days. All cancer cells were cultured in RPMI 1640 containing 10% fetal calf serum, 100 U/mL penicillin, 100 µg/mL streptomycin, and 2 mM L-lutamine (complete RPMI medium). All cancer cells were plated at 1×10^4 cells per well in a 96 well plate. Drugs of different concentrations were then added. MTS assays (CellTiter 96® AQueous One Solution Cell Proliferation Assay, Promega) were performed after 72 h post treatment to determine the cell viability following drug administration.", "units": {"IC50": "µM"}}
{"smiles": "COc1ccc2nc(SCC(=O)Nc3ccccc3OC)c(C#N)cc2c1", "note": "[5a]", "IC50": 40}
{"smiles": "COc1ccc2nc(SCC(=O)Nc3cc(Cl)ccc3OC)c(C#N)cc2c1", "note": "[5b]", "IC50": 10}
{"smiles": "COc1ccc(OC)c(NC(=O)CSc2nc3ccc(OC)cc3cc2C#N)c1", "note": "[5c]", "IC50": 10}
{"smiles": "COc1ccc2nc(SCC(=O)Nc3ccccc3Br)c(C#N)cc2c1", "note": "[5d]", "IC50": 10}
{"smiles": "COc1ccc2nc(SCC(=O)Nc3ccccc3Cl)c(C#N)cc2c1", "note": "[5e]", "IC50": 10}
{"smiles": "COc1ccc2nc(SCC(=O)Nc3ccccn3)c(C#N)cc2c1", "note": "[5f]", "IC50": 10}
{"smiles": "COc1ccc2nc(SCC(=O)Nc3ccc(Cl)cn3)c(C#N)cc2c1", "note": "[5g]", "IC50": 10}
{"smiles": "COc1ccc2nc(SCC(=O)Nc3cnccn3)c(C#N)cc2c1", "note": "[5h]", "IC50": 10}
{"smiles": "COc1ccc2nc(SCC(=O)Nc3cc(C(F)(F)F)ccc3C(F)(F)F)c(C#N)cc2c1", "note": "[5i]", "IC50": 20}
{"smiles": "COc1ccc2nc(SCC(=O)Nc3nccs3)c(C#N)cc2c1", "note": "[5j]", "IC50": 10}
{"smiles": "COc1ccc2nc(SCC(=O)Nc3ccccc3O)c(C#N)cc2c1", "note": "[5k]", "IC50": 30}
{"smiles": "COc1ccc2nc(SCC(=O)Nc3ccc(Cl)cc3Cl)c(C#N)cc2c1", "note": "[5l]", "IC50": 10}
{"smiles": "CCc1cccc(CC)c1NC(=O)CSc1nc2ccc(OC)cc2cc1C#N", "note": "[5m]", "IC50": 20}
{"smiles": "COc1ccc2nc(SCC(=O)Nc3ccc(N(C)C)cc3)c(C#N)cc2c1", "note": "[5n]", "IC50": 10}
{"smiles": "COc1ccc(C)cc1NC(=O)CSc1nc2ccc(Cl)cc2cc1C#N", "note": "[5o]", "IC50": 20}
{"smiles": "N#Cc1cc2cc(Cl)ccc2nc1SCC(=O)Nc1ccccc1C(F)(F)F", "note": "[5p]", "IC50": 10}
{"smiles": "COc1ccc(C)cc1NC(=O)CSc1nc2ccc(C)cc2cc1C#N", "note": "[5q]", "IC50": 20}
{"smiles": "Cc1ccc2nc(SCC(=O)Nc3ccccc3C(F)(F)F)c(C#N)cc2c1", "note": "[5r]", "IC50": 40}
{"smiles": "COc1ccc(C)cc1NC(=O)CSc1nc2ccc(Br)cc2cc1C#N", "note": "[5s]", "IC50": 40}
{"smiles": "N#Cc1cc2cc(Br)ccc2nc1SCC(=O)Nc1ccccc1C(F)(F)F", "note": "[5t]", "IC50": 50}
{"smiles": "COc1ccc2nc(SCC(=O)Nc3cc(C)ccc3OC)c(C#N)cc2c1", "note": "[I2]", "IC50": 1}
